Earlier results on one compound are cited in patent publication US12128121B2, “Compositions comprising organo-silanol compounds, and applications” (EXSYMOL, priority 2020, dated 2024).

Read-outs that look alike come from different tables or passages of the source.

For `C[Si](O)(O)O` [CH3—Si(OH)3, monomethylsilanetriol], the concentration in water by setting is: (as silicon, CH3—Si(OH)3) roughly 588 mg Si/I; (limit before self-condensation) roughly 21 mM.
